Results: US20180140578A1, “METHODS AND COMPOSITIONS FOR THE DIAGNOSIS AND SELECTIVE TREATMENT OF CANCER” (Board of Regents of the University of Texas System, priority 2016, published 2018)

Legend:
[1] = tested on: H1155 cells transduced with DCAF15-3xFLAG cDNA; test: Cell viability assay, DCAF15 overexpression; type: cell-based, human; conditions: H1155 cells expressing higher than normal levels of DCAF15
[2] = tested on: HCT-116 cells expressing wild type or mutant RBM39; test: Transient transfection of RBM39 cDNA, crystal violet staining; type: cell-based, human; conditions: 2 μM indisulam
Protocol: RBM39 was PCR amplified from U2OS cDNA and cloned into pLVX IRES zsGreen1 (Clontech). Mutagenesis of RBM39 was performed using Q5 site-directed mutagenesis kit (NEB) and primers were designed using the NEBaseChanger web server (nebasechanger.neb.com/). For transient transfection, 0.1 million HCT-116 cells were seeded per well in a 12-well plate on day 1. On day 2, cells were transfected with 1 μg of plasmid (pLVX IRES zsGreen containing wild type or mutant RBM39). […] For crystal violet staining, cells on plates were stained with 0.05% crystal violet, 1% formaldehyde in 1×PBS for 20 min at room temperature, followed by several rinses with deionized water to remove free stain.

RBM39 mRNA = test: qPCR quantification of RBM39 mRNA; type: cell-based, human; conditions: HCT-116 cells after indisulam treatment
Protocol: (§1) RNAs isolated from indisulam or siRNA treated cells were first treated with Turbo DNase (Life Technologies) to remove contaminating genomic DNA. After RNA cleanup with Quick-RNA MiniPrep kit (Zymo Research), 500 ng of total RNAs was converted into cDNAs with Multiscribe reverse transcriptase (Life Technologies). Exon skipping in TRIM27 was visualized by PCR amplification with 5′-[…]-3′ (SEQ ID NO: 3) and 5′-[…]-3′ (SEQ ID NO: 4) from cDNAs. […] Relative RNA levels were calculated based on 2^−ct method using Cyclophilin mRNA for normalization. The following primers were used for quantification of mRNA levels: […]
For measurement of RBM39 mRNA levels, the following primers were used: […]

[3] = target: T1, RBM39-3xFLAG with DDA1, DDB1, CUL4A, CUL4B (Homo sapiens, UniProt Q14498+Q66K64); test: Co-immunoprecipitation of RBM39-3xFLAG from treated cells; type: cell-based; conditions: cells treated with indisulam but not DMSO
T1 construct: endogenous in cells; host or cells: HCT-116 RBM39-3xFLAG knock-in cells (treated cells in A90)
Protocol: Anti-Flag M2 antibody (Sigma-Aldrich) was coupled to Dynabeads M-270 epoxy beads (Life Technologies) at the ratio of 10 μg of antibody/mg beads. […] Frozen cells were then pulverized in the a cryomill (Retsch) with one 25 mm steel ball and five cycles of three min at 25 Hz with intermittent cooling in liquid nitrogen. […] The lysates were centrifuged at 8000 g for 5 min at 4° C. 12 mg of conjugated Anti-Flag magnetic beads were mixed with clarified lysates for 5 min at 4° C. on a rotating platform, followed by three washes with IP buffer. Bound proteins were eluted with 1 mg/ml 3xFLAG peptide, followed by SDS-PAGE on a 10% Bis Tris gel. After brief electrophoresis, bands containing all the proteins were cut with clean blades. For western blotting of co-immunoprecipitated proteins, anti-DDA1 (ProteinTech, 14995-1-AP, 1:1000), anti-DDB1 (Abcam, ab109027, 1;10000), anti-CUL4A (Cell Signaling, 2699, 1:1000), anti-CUL4B (ProteinTech, 12916-1-AP, 1:1000) were used.

[4] = target: T2, DDB1:DCAF15-GST and RBM39Δ150 (Homo sapiens, UniProt Q14498+Q66K64); test: Indisulam dependent co-fractionation of DCAF15-DDB1 and RBM39 (size exclusion chromatography); type: binding; conditions: 10 μM indisulam
T2 construct: made in house; host or cells: Sf9 (baculovirus)
Protocol: RBM39 lacking the first 150 amino acids after the start codon (RBM39Δ150) was cloned into the pFastBac1 (Life Technologies) vector. Site-directed Mutagenesis of RBM39 was performed using Q5 site-directed mutagenesis kit (NEB). DCAF15-GST (C-terminal GST tag) and DDB1 were also cloned into pFastBac1. The production of baculovirus was carried out following vendor's instructions. Protein was expressed in SF9 cells by infection with each protein specific baculovirus, and cells were harvested 48 hr later and frozen in liquid nitrogen. For purification of RBM39Δ150, frozen cells were pulverized by cryomill and resuspended in lysis buffer (40 mM Tris, pH 7.5, 225 mM NaCl, 1× […] Protease inhibitor). The lysate was passed through a 22 gauge needle 2 times followed by ultracentrifugation at 25000 rpm for 30 min. Clarified lysate was incubated with Ni-NTA agarose (Qiagen) for 30 min with rotation at 4° C. Resin and bound protein were washed with wash buffer 1 (40 mM Tris, pH 7.5, 225 mM NaCl) followed by wash buffer 2 (40 mM Tris, pH 7.5, 20 mM imidazole, 225 mM NaCl). Proteins were eluted with elution buffer (40 mM Tris, pH 7.5, 300 mM imidazole, 225 mM NaCl) and concentrated to 0.5 ml. […]
The mixture was incubated for 1 hour with rotation at 4° C. […] 1 ml fractions were collected and analyzed by SDS-PAGE and coomassie blue staining.

[5] = tested on: TRIM27 mRNA and RBM3 mRNA; test: PCR validation of splicing changes; type: cell-based, human
Protocol: as §1

human cancer cell lines = conditions: cited from earlier work

T2 sequence (Q66K64 whole entry, stated change not applied): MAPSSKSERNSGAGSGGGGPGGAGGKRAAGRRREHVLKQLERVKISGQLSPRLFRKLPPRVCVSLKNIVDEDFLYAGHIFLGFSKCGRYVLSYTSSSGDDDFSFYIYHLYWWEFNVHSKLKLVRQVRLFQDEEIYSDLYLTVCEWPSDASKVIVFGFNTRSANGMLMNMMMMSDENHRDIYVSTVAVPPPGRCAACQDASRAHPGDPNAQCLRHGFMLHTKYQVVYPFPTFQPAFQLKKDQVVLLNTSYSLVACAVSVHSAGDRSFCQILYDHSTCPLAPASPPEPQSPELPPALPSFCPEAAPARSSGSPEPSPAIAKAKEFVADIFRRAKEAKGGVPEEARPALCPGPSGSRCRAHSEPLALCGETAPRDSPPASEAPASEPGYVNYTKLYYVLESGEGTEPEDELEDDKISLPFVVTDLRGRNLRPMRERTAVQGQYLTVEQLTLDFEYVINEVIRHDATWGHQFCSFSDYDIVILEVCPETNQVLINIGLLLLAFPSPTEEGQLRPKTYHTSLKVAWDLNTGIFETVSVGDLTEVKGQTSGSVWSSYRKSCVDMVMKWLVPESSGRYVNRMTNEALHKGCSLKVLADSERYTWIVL
T2 sequence (Q14498 151-530 limits assumed, stated change not applied): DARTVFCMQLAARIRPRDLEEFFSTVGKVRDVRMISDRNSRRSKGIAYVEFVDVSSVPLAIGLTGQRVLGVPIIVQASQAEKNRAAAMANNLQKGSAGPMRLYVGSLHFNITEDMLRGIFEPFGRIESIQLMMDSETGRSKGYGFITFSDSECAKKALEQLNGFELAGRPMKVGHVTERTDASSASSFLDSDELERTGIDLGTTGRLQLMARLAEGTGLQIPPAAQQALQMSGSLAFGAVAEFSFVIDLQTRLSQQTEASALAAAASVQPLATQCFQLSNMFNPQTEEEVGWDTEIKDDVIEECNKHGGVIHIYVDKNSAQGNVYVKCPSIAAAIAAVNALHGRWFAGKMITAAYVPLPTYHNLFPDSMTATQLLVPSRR
T2 sequence (Q16531 whole entry partner): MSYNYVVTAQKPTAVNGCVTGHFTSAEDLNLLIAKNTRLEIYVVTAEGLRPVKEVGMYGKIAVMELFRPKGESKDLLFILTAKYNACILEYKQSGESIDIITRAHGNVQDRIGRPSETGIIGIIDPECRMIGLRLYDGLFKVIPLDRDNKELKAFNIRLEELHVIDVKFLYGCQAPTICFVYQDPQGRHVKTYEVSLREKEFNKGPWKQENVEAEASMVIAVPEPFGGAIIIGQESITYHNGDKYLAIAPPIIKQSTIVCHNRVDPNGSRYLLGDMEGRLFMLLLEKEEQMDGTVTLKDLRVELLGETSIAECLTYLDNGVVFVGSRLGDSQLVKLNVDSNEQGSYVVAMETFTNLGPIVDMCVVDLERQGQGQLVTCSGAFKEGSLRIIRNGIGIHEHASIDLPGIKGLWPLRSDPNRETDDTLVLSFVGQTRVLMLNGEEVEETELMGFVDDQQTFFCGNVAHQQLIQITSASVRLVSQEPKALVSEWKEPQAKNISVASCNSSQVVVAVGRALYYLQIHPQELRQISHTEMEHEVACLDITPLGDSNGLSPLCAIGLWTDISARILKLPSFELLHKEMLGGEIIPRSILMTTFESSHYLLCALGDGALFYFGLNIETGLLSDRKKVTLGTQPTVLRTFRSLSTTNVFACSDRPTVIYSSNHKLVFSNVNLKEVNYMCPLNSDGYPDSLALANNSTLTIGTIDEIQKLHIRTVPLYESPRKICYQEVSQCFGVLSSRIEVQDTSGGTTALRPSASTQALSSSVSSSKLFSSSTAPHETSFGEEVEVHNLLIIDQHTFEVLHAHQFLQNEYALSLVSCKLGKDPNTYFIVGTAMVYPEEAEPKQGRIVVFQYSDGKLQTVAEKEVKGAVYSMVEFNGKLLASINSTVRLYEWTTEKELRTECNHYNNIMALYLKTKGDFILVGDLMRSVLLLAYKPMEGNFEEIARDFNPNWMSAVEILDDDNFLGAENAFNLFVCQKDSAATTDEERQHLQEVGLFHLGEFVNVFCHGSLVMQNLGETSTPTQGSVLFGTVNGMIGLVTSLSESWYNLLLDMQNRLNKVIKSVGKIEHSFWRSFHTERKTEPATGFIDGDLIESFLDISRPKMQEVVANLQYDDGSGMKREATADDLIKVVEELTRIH

NS(=O)(=O)c1ccc(S(=O)(=O)Nc2cccc3c(Cl)c[nH]c23)cc1 [Indisulam, indisulam]
sensitivity vs mock treated cells [1]: more sensitive
cell survival (crystal violet) ([2]; mock-transfected or wild type RBM39): not indisulam resistant
cell survival (crystal violet) ([2]; transient expression of eight different RBM39 mutants): conferred resistance
RBM39 mRNA (RBM39 mRNA): no dose dependent decrease
co-purification of RBM39-3xFLAG with DDA1, DDB1, CUL4A, CUL4B [3]: co-purified
elution of RBM39Δ150 with DDB1:DCAF15-GST peak [4]: co-elutes
splicing of TRIM27 mRNA (RT-PCR) [5]: dose-dependent exon skipping
splicing of RBM3 mRNA (RT-PCR) ([5]; indisulam dose-dependent): intron retention
effect on cell cycle (human cancer cell lines): cell cycle arrest in the G1 phase followed by cell death
